Counter-ions that a name gives are not always drawn.

In general, melting point refers to the temperature of the solid-liquid transition.

With `COC(=O)c1ccc(Oc2ccc3c(c2)CCN(C2CCN(C4CCC4)CC2)C3=O)cc1` (as salt: hydrochloride) [Example 1, methyl 4-{[2-(1-Cyclobutylpiperidin-4-yl)-1-oxo-1,2,3,4-tetrahydroisoquinolin-6-yl]oxy}benzoate], the melting point was 269 to 270 °C. The figure for `NC(=O)c1ccc(Oc2ccc3c(c2)CCN(C2CCN(C4CCC4)CC2)C3=O)cc1` (as salt: hydrochloride) [Example 3, 4-{[2-(1-cyclobutylpiperidin-4-yl)-1-oxo-1,2,3,4-tetrahydroiso-quinolin-6-yl]oxy}benzamide Hydrochloride] is 309 to 310 °C.

`CNC(=O)c1ccc(Oc2ccc3c(c2)CCN(C2CCN(C4CCC4)CC2)C3=O)cc1` (as salt: hydrochloride) [Example 4, 4-{[2-(1-Cyclobutylpiperidin-4-yl)-1-oxo-1,2,3,4-tetrahydroisoquinolin-6-yl]oxy}-N-methylbenzamide] had a melting point of over 310 °C. In turn, `CCNC(=O)c1ccc(Oc2ccc3c(c2)CCN(C2CCN(C4CCC4)CC2)C3=O)cc1` (as salt: hydrochloride) [Example 5, 4-{[2-(1-Cyclobutylpiperidin-4-yl)-1-oxo-1,2,3,4-tetrahydroisoquinolin-6-yl]oxy}-N-ethylbenzamide] had a melting point of 317 to 318 °C. The figure for `CC(C)NC(=O)c1ccc(Oc2ccc3c(c2)CCN(C2CCN(C4CCC4)CC2)C3=O)cc1` (as salt: hydrochloride) [Example 6, 4-{[2-(1-Cyclobutylpiperidin-4-yl)-1-oxo-1,2,3,4-tetrahydroisoquinolin-6-yl]oxy}-N-isopropylbenzamide] is 309 to 311 °C; for `O=C(NC1CC1)c1ccc(Oc2ccc3c(c2)CCN(C2CCN(C4CCC4)CC2)C3=O)cc1` (as salt: hydrochloride) [Example 7, 4-{[2-(1-Cyclobutylpiperidin-4-yl)-1-oxo-1,2,3,4-tetrahydroisoquinolin-6-yl]oxy}-N-cyclopropylbenzamide] it is 307 to 309 °C. The figure for `O=C(NC1CCC1)c1ccc(Oc2ccc3c(c2)CCN(C2CCN(C4CCC4)CC2)C3=O)cc1` (as salt: hydrochloride) [Example 8, N-Cyclobutyl-4-{[2-(1-cyclobutylpiperidin-4-yl)-1-oxo-1,2,3,4-tetrahydroisoquinolin-6-yl]oxy}benzamide] is over 300 °C. The figure for `O=C(NC1CCCC1)c1ccc(Oc2ccc3c(c2)CCN(C2CCN(C4CCC4)CC2)C3=O)cc1` (as salt: hydrochloride) [Example 9, 4-{[2-(1-Cyclobutylpiperidin-4-yl)-1-oxo-1,2,3,4-tetrahydroisoquinolin-6-yl]oxy}-N-cyclopentylbenzamide] is over 300 °C; for `CN(C)C(=O)c1ccc(Oc2ccc3c(c2)CCN(C2CCN(C4CCC4)CC2)C3=O)cc1` (as salt: hydrochloride) [Example 10, 4-{[2-(1-Cyclobutylpiperidin-4-yl)-1-oxo-1,2,3,4-tetrahydroisoquinolin-6-yl]oxy}-N,N-dimethylbenzamide] it is 262 to 264 °C; for `CCN(CC)C(=O)c1ccc(Oc2ccc3c(c2)CCN(C2CCN(C4CCC4)CC2)C3=O)cc1` (as salt: hydrochloride) [Example 11, 4-{[2-(1-Cyclobutylpiperidin-4-yl)-1-oxo-1,2,3,4-tetrahydroisoquinolin-6-yl]oxy}-N,N-diethylbenzamide] it is 249 to 251 °C. `O=C(c1ccc(Oc2ccc3c(c2)CCN(C2CCN(C4CCC4)CC2)C3=O)cc1)N1CCCC1` (as salt: hydrochloride) [Example 12, 2-(1-Cyclobutylpiperidin-4-yl)-6-[4-(pyrrolidin-1-ylcarbonyl)phenoxy]-3,4-dihydroisoquinolin-1(2H)-one]: the melting point was in the range of 253 to 255 °C. The figure for `NC(=O)c1ccc(COc2ccc3c(c2)CCN(C2CCN(C4CCC4)CC2)C3=O)cc1` (as salt: hydrochloride) [Example 15, 4-({[2-(1-cyclobutylpiperidin-4-yl)-1-oxo-1,2,3,4-tetrahydroiso-quinolin-6-yl]oxy}methyl)benzamide acid hydrochloride] is 292 to 293 °C; for `CNC(=O)c1ccc(COc2ccc3c(c2)CCN(C2CCN(C4CCC4)CC2)C3=O)cc1` (as salt: hydrochloride) [Example 16, 4-({[2-(1-Cyclobutylpiperidin-4-yl)-1-oxo-1,2,3,4-tetrahydroisoquinolin-6-yl]oxy}methyl)-N-methylbenzamide] it is 302 to 303 °C; for `CCNC(=O)c1ccc(COc2ccc3c(c2)CCN(C2CCN(C4CCC4)CC2)C3=O)cc1` (as salt: hydrochloride) [Example 17, 4-({[2-(1-Cyclobutylpiperidin-4-yl)-1-oxo-1,2,3,4-tetrahydroisoquinolin-6-yl]oxy}methyl)-N-ethylbenzamide] it is 307 to 309 °C. For `CN(C)C(=O)c1ccc(COc2ccc3c(c2)CCN(C2CCN(C4CCC4)CC2)C3=O)cc1` (as salt: hydrochloride) [Example 18, 4-({[2-(1-Cyclobutylpiperidin-4-yl)-1-oxo-1,2,3,4-tetrahydroisoquinolin-6-yl]oxy}methyl)-N,N-dimethylbenzamide] the value was 292 to 294 °C. `O=C(NC1CCC1)c1ccc(COc2ccc3c(c2)CCN(C2CCN(C4CCC4)CC2)C3=O)cc1` (as salt: hydrochloride) [Example 19, N-Cyclobutyl-4-({[2-(1-cyclobutylpiperidin-4-yl)-1-oxo-1,2,3,4-tetrahydroisoquinolin-6-yl]oxy}methyl)benzamide] displayed a melting point of 286 to 288 °C. For `O=C(c1ccc(COc2ccc3c(c2)CCN(C2CCN(C4CCC4)CC2)C3=O)cc1)N1CCCC1` (as salt: hydrochloride) [Example 20, 2-(1-Cyclobutylpiperidin-4-yl)-6-{[4-(pyrrolidin-1-ylcarbonyl)benzyl]oxy}-3,4-dihydroisoquinolin-1(2H)-one] the value was 284 to 286 °C; for `O=C(NC1CCCC1)c1ccc(COc2ccc3c(c2)CCN(C2CCN(C4CCC4)CC2)C3=O)cc1` (as salt: hydrochloride) [Example 21, 4-({[2-(1-Cyclobutylpiperidin-4-yl)-1-oxo-1,2,3,4-tetrahydroisoquinolin-6-yl]oxy}methyl)-N-cyclopentylbenzamide], 289 to 291 °C; for `N#Cc1ccc(-c2ccc3c(c2)CN(C2CCNCC2)C3=O)cc1` (as salt: hydrochloride) [Example 22, 4-(1-oxo-2-piperidin-4-yl-2,3-dihydro-1H-isoindol-5-yl)benzonitrile hydrochloride], 105 to 106 °C. Regarding `CN1CCC(N2Cc3cc(-c4ccc(C#N)cc4)ccc3C2=O)CC1` (as salt: hydrochloride) [Example 23], the melting point is 322 to 323 °C. The figure for `CCN1CCC(N2Cc3cc(-c4ccc(C#N)cc4)ccc3C2=O)CC1` (as salt: hydrochloride) [Example 24, 4-[2-(1-Ethylpiperidin-4-yl)-1-oxo-2,3-dihydro-1H-isoindol-5-yl]benzonitrile] is over 300 °C. For `CCCN1CCC(N2Cc3cc(-c4ccc(C#N)cc4)ccc3C2=O)CC1` (as salt: hydrochloride) [Example 25, 4-[1-Oxo-2-(1-propylpiperidin-4-yl)-2,3-dihydro-1H-isoindol-5-yl]benzonitrile] the value was 300 to 302 °C. The compound `N#Cc1ccc(-c2ccc3c(c2)CN(C2CCN(CC4CC4)CC2)C3=O)cc1` (as salt: hydrochloride) [Example 26, 4-{2-[1-(Cyclopropylmethyl)piperidin-4-yl]-1-oxo-2,3-dihydro-1H-isoindol-5-yl}benzonitrile] registered a melting point of 309 to 310 °C.

`N#Cc1ccc(-c2ccc3c(c2)CN(C2CCN(CC4CCCC4)CC2)C3=O)cc1` (as salt: hydrochloride) [Example 27, 4-{2-[1-(Cyclopentylmethyl)piperidin-4-yl]-1-oxo-2,3-dihydro-1H-isoindol-5-yl}benzonitrile] returned a melting point of over 300 °C. For `N#Cc1ccc(-c2ccc3c(c2)CN(C2CCN(C4CCC4)CC2)C3=O)cc1` (as salt: hydrochloride) [Example 28, 4-[2-(1-Cyclobutylpiperidin-4-yl)-1-oxo-2,3-dihydro-1H-isoindol-5-yl]benzonitrile] the value was 320 °C (dec.); for `N#Cc1ccc(-c2ccc3c(c2)CN(C2CCN(C4CCCC4)CC2)C3=O)cc1` (as salt: hydrochloride) [Example 29, 4-[2-(1-Cyclopentylpiperidin-4-yl)-1-oxo-2,3-dihydro-1H-isoindol-5-yl]benzonitrile], 270 °C (dec.).

`N#Cc1ccc(-c2ccc3c(c2)CN(C2CCN(C4CCCCC4)CC2)C3=O)cc1` (as salt: hydrochloride) [Example 30, 4-[2-(1-Cyclohexylpiperidin-4-yl)-1-oxo-2,3-dihydro-1H-isoindol-5-yl]benzonitrile] showed a melting point of over 300 °C.

The compound `CNC(=O)c1ccc(Oc2ccc3c(c2)CCN([C@@H]2CCN(C4CCC4)C2)C3=O)cc1` (as salt: hydrochloride) [Example 33, 4-({2-[(3R)-1-cyclobutylpyrrolidin-3-yl]-1-oxo-1,2,3,4-tetrahydroisoquinolin-6-yl}oxy)-N-methylbenzamide] gave a melting point of 206 to 208 °C. As to `CCNC(=O)c1ccc(Oc2ccc3c(c2)CCN([C@@H]2CCN(C4CCC4)C2)C3=O)cc1` (as salt: hydrochloride) [Example 34, 4-({2-[(3R)-1-cyclobutylpyrrolidin-3-yl]-1-oxo-1,2,3,4-tetrahydroisoquinolin-6-yl}oxy)-N-ethylbenzamide], the melting point lay within 153 to 154 °C.

Compound `CNC(=O)c1ccc(Oc2ccc3c(c2)CCN([C@@H]2CCN(C4CCCC4)C2)C3=O)cc1` (as salt: hydrochloride) [Example 37, 4-({2-[(3R)-1-cyclopentylpyrrolidin-3-yl]-1-oxo-1,2,3,4-tetrahydroisoquinolin-6-yl}oxy)-N-methylbenzamide] came in with a melting point of 223 to 224 °C.

For the origin of these results see patent US20090069370A1, “AZACYCLYLISOQUINOLINONE AND ISOINDOLINONE DERIVATIVES AS HISTAMINE-3 ANTAGONISTS” (Wyeth, priority 2007, published 2009).
